Laboratory results from patent publication US20210317086A1, “Tramadol HBR-Celecoxib Co-Crystal” (Mylan Laboratories Limited, priority 2018, published 2021).

Assay: Indicative stability: storage of the co-crystal at 40° C./75% RH and at 25° C./60% RH for 6 months, analysed by PXRD and HPLC
Format: physicochemical
Experimental: The PXRD measurements were carried out using PANalytical X′Pert PRO powder diffractometer equipped with goniometer of θ/θ configuration and X'Celerator detector. The Cu-anode X-ray tube was operated at 40 kV and 30 mA. The experiments were conducted over the […] of 2.0°-50.0°, 0.030° step size and 50 seconds step time.
In yet another embodiment, physical and chemical stability of 1:1 co-crystal of (rac)-tramadol.HBr-celecoxib sample was determined by storing the sample at 40° C./75% relative humidity (RH) and at 25° C./60% relative humidity (RH) for 6 months as mentioned in below Table 1. The samples were analyzed by PXRD and HPLC for final purity.

1:1 co-crystal of (rac)-tramadol hydrobromide and celecoxib
HPLC purity (%) (at 25° C./60% RH, 1 month): 99.88%
PXRD (at 25° C./60% RH, 1 month): Stable
HPLC purity (%) (at 25° C./60% RH, 2 months): 99.89%
PXRD (at 25° C./60% RH, 2 months): Stable
HPLC purity (%) (at 25° C./60% RH, 3 months): 99.87%
PXRD (at 25° C./60% RH, 3 months): Stable
HPLC purity (%) (at 25° C./60% RH, 6 months): 99.87%
PXRD (at 25° C./60% RH, 6 months): Stable
HPLC purity (%) (at 25° C./60% RH, Initial): 99.89%
PXRD (at 25° C./60% RH, Initial): Crystalline
HPLC purity (%) (at 40° C./75% RH, 1 month): 99.86%
PXRD (at 40° C./75% RH, 1 month): Stable
HPLC purity (%) (at 40° C./75% RH, 2 months): 99.89%
PXRD (at 40° C./75% RH, 2 months): Stable
HPLC purity (%) (at 40° C./75% RH, 3 months): 99.88%
PXRD (at 40° C./75% RH, 3 months): Stable
HPLC purity (%) (at 40° C./75% RH, 6 months): 99.86%
PXRD (at 40° C./75% RH, 6 months): Stable
HPLC purity (%) (at 40° C./75% RH, Initial): 99.89%
PXRD (at 40° C./75% RH, Initial): Crystalline
physical and chemical stability (conclusion from 6 months storage at 40° C./75% RH and 25° C./60% RH): physically and chemically stable
change in HPLC purity and PXRD pattern on storage (stored for 6 months at 40° C./75% RH and at 25° C./60% RH): no change in HPLC purity and PXRD pattern
